CN(C)/C=C/C(=O)c1cccnc1
solubility (mole fraction)
Settings | in 1,4-dioxane | in DMF | in THF | in acetone | in cyclohexane | in ethyl acetate | in methanol | in n-propanol
278.15 K | – | 0.0897 | 0.021 | 0.00872 | – | 0.0131 | 0.0255 | 0.0185
283.15 K | – | 0.112 | 0.0216 | 0.00917 | 0.00098 | 0.014 | 0.0278 | 0.0207
288.15 K | 0.0331 | 0.142 | 0.0225 | 0.00987 | 0.00114 | 0.0152 | 0.0304 | 0.0233
293.15 K | 0.0357 | 0.175 | 0.0239 | 0.0108 | 0.00147 | 0.0163 | 0.034 | 0.0261
298.15 K | 0.0388 | 0.209 | 0.0257 | 0.0117 | 0.00183 | 0.018 | 0.0379 | 0.0298
303.15 K | 0.0427 | 0.249 | 0.0279 | 0.0127 | 0.00228 | 0.02 | 0.0427 | 0.0331
308.15 K | 0.048 | 0.293 | 0.0304 | 0.0138 | 0.00284 | 0.0228 | 0.0476 | 0.0371
313.15 K | 0.054 | 0.348 | 0.033 | 0.0149 | 0.0034 | 0.0259 | 0.0533 | 0.0408
318.15 K | 0.061 | 0.408 | 0.0358 | 0.0164 | 0.00408 | 0.0295 | 0.0588 | 0.0465
323.15 K | 0.0692 | 0.482 | 0.0391 | 0.0178 | 0.00493 | 0.0338 | 0.0648 | 0.0529
328.15 K | 0.0779 | 0.588 | 0.0428 | 0.0197 | 0.0061 | 0.0382 | 0.0715 | 0.0604

— BigSolDB 2.1
